In patent US9365583B2, “Substituted pyrazoles and uses thereof” (Genentech, Inc., priority 2013, dated 2016) one finds Ki data, which are given here for 23 compounds.

Structures are written as SMILES.

The test concerns the target T1, N-terminally GST-tagged DLK (catalytic domain amino acid 1-520) (Homo sapiens, UniProt Q12852).
T1 construct: N-terminally GST-tagged DLK (catalytic domain amino acid 1-520); purchased Carna Bioscience
T1 sequence (Q12852 1-520): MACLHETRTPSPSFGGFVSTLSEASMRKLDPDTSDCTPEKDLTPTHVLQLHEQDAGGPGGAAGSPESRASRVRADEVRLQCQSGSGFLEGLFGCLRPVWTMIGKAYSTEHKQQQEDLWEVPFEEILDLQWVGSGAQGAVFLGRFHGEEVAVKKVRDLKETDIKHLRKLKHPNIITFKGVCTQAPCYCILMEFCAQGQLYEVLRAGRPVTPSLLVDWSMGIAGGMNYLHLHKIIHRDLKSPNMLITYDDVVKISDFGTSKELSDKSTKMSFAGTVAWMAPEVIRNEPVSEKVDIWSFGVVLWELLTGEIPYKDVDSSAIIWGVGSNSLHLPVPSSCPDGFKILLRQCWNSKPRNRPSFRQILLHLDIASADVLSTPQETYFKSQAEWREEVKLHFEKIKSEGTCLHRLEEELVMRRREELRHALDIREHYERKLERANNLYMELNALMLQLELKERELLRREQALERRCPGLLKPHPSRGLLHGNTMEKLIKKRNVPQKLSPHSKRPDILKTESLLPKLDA
Description: DLK TR-FRET inhibition assay. Type of test: biochemical. To be noted: 5 nM GST-DLK, 40 nM HIS-MKK4 K131M substrate, 30 μM ATP, 60 minutes at ambient temperature. Put shortly: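 5 nM GST-DLK (aa 1-520), 40 nM HIS-MKK4 K131M and 30 μM ATP reacted 60 min at ambient temperature in HEPES pH 7.5 buffer with 10 mM MgCl2, compound 1:3 serially diluted from 20 uM. TR-FRET detection of phospho-MKK4 used Eu-cryptate anti-phospho-MKK4 plus D2 anti-HIS, read after 3 h (665/615 nm).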
Background: In TR-FRET formats the signal depends on donor and acceptor labels being close together.
The term Ki denotes a measure of affinity in units of concentration, obtained from inhibition or displacement. In turn, `Nc1ncc(-c2cc([C@H]3[C@@H]4C[C@H](N5CCOCC5)C[C@@H]43)n(CC(F)F)n2)cc1C(F)(F)F` [compound 91, 5-(1-(2,2-difluoroethyl)-5-((1R,3r,5S,6r)-3-morpholinobicyclo [3.1.0]hexan-6-yl)-1H-pyrazol-3-yl)-3-(trifluoromethyl)pyridin-2-amine] came in with an inhibition constant Ki of 3.79 nM.

In turn, `CC(C)n1nc(-c2cnc(N)c(C(F)(F)F)c2)cc1[C@H]1[C@@H]2C[C@H](N3CC4(CCCO4)C3)C[C@@H]21` [compound 227, 5-(5-((1R,3r,5S,6r)-3-(5-oxa-2-azaspiro[3.4]octan-2-yl)bicyclo [3.1.0]hexan-6-yl)-1-isopropyl-1H-pyrazol-3-yl)-3-(trifluoro-methyl)pyridin-2-amine] gave an inhibition constant (Ki) of 4.5 nM.

Compound `CC(C)n1nc(-c2cnc(N)c(OC(F)(F)F)c2)cc1[C@H]1[C@@H]2C[C@@H](N3CCNCC3)C[C@@H]21` [compound 245, 5-(1-isopropyl-5-((1R,3s,5S,6r)-3-(piperazin-1-yl)bicyclo[3.1.0]hexan-6-yl)-1H-pyrazol-3-yl)-3-(trifluoromethoxy)pyridin-2-amine] displayed an inhibition constant Ki of 2.6 nM.

`CC(C)n1nc(-c2cnc(N)c(C(F)(F)F)c2)cc1[C@H]1[C@@H]2C[C@@H](O)C[C@@H]21` [compound 5, (1R,3s,5S,6r)-6-(3-(6-amino-5-(trifluoromethyl)pyridin-3-yl)-1-isopropyl-1H-pyrazol-5-yl) bicyclo[3.1.0]hexan-3-ol] gave an inhibition constant (Ki) of 18.8 nM.

With `CC(C)n1nc(-c2cnc3ccn([C@H](C)c4ccccn4)c3c2)cc1[C@H]1[C@@H]2C[C@H](N3CCOCC3)C[C@@H]21` [compound 26, 4-((1R,3R,5S,6r)-6-(1-isopropyl-3-(1-((R)-1-(pyridin-2-yl)ethyl)-1H-pyrrolo[3,2-b]pyridin-6-yl)-1H-pyrazol-5-yl)bicyclo[3.1.0]hexan-3-yl)morpholine], the inhibition constant Ki is 75.6 nM.

Compound `CC(C)n1nc(-c2cnc(N)c(OC(F)F)c2)cc1[C@H]1[C@@H]2C[C@H](F)C[C@@H]21` [compound 213, 3-(difluoromethoxy)-5-(5-((1R,3r,5S,6r)-3-fluorobicyclo[3.1.0]hexan-6-yl)-1-isopropyl-1H-pyrazol-3-yl)pyridin-2-amine] showed a Ki of 5.1 nM.

The compound `CC(C)n1nc(-c2cnc(N)c(OC(F)(F)F)c2)cc1[C@H]1[C@@H]2C[C@H](N3CC4(COC4)C3)C[C@@H]21` [compound 57, 5-(5-((1R,3r,5S,6r)-3-(2-oxa-6-azaspiro[3.3]heptan-6-yl)bicyclo [3.1.0]hexan-6-yl)-1-isopropyl-1H-pyrazol-3-yl)-3-(trifluoro-methoxy)pyridin-2-amine] displayed a Ki of 1.88 nM.

In the case of `CC(C)n1nc(-c2cnc(N)c(OC(F)F)c2)cc1[C@H]1[C@@H]2C[C@H](N3CCC(F)(F)C3)C[C@@H]21` [compound 89, 3-(difluoromethoxy)-5-(5-((1R,3r,5S,6r)-3-(3,3-difluoropyrrolidin-1-yl)bicyclo[3.1.0]hexan-6-yl)-1-isopropyl-1H-pyrazol-3-yl) pyridin-2-amine], the Ki is 6.42 nM.

The compound `CC(C)n1nc(-c2cnc(N)c(OC(F)F)c2)cc1[C@H]1[C@@H]2C[C@@H](N3CCN(CC(F)F)CC3)C[C@@H]21` [compound 257, 5-(5-((1R,3s,5S,6r)-3-(4-(2,2-difluoro-ethyl)piperazin-1-yl)bicyclo [3.1.0]hexan-6-yl)-1-isopropyl-1H-pyrazol-3-yl)-3-(difluoromethoxy)pyridin-2-amine] gave a Ki of 0.7 nM.

For the compound `CC(C)n1nc(-c2cnc(N)c(C(F)(F)F)c2)cc1[C@H]1[C@@H]2CC3(C[C@@H]21)CN(C)CCO3` (single isomer, unassigned) [compound 197], the Ki was determined as 1.3 nM.

`CC(C)n1nc(-c2cnc(N)c(OC(F)F)c2)cc1[C@H]1[C@@H]2C[C@H](N3CC(F)(F)C3)C[C@@H]21` [compound 43, 5-(5-((1R,3r,5S,6r)-3-(3,3-difluoro-azetidin-1-yl)bicyclo[3.1.0]hexan-6-yl)-1-isopropyl-1H-pyrazol-3-yl)-3-(difluoromethoxy) pyridin-2-amine] yielded an inhibition constant Ki of 3.05 nM.

As for `Nc1ncc(-c2cc([C@H]3[C@@H]4C[C@@H](N5CCCOCC5)C[C@@H]43)n(CC(F)F)n2)cc1OC(F)(F)F` [compound 243, 5-(5-((1R,3s,5S,6r)-3-(1,4-oxazepan-4-yl)bicyclo[3.1.0]hexan-6-yl)-1-(2,2-difluoroethyl)-1H-pyrazol-3-yl)-3-(trifluoromethoxy) pyridin-2-amine], the affinity corresponds to a Ki of 1.1 nM.

In turn, `CC(C)n1nc(-c2cnc(N)c(C(F)(F)F)c2)cc1[C@H]1[C@@H]2C[C@H](N3CCN(C)C[C@@H]3C)C[C@@H]21` [compound 242, 5-(5-((1R,3r,5S,6S)-3-((S)-2,4-dimethylpiperazin-1-yl)bicyclo [3.1.0]hexan-6-yl)-1-isopropyl-1H-pyrazol-3-yl)-3-(trifluoromethyl) pyridin-2-amine] came in with an inhibition constant (Ki) of 2.1 nM.

In turn, `CC(C)n1nc(-c2cnc(N)c(C(F)(F)F)c2)cc1[C@H]1[C@@H]2C[C@H](N(C)CCS(C)(=O)=O)C[C@@H]21` [compound 8, 5-(1-isopropyl-5-((1R,3r,5S,6r)-3-(methyl(2-(methylsulfonyl)ethyl)amino)bicyclo[3.1.0]hexan-6-yl)-1H-pyrdzol-3-yl)-3-(trifluoromethyl)pyridin-2-amine] came in with a Ki of 3.36 nM.

Compound `CC(C)n1nc(-c2cnc(N)c(OC(F)F)c2)cc1[C@H]1[C@@H]2C[C@@H](N3C4COCC3C4)C[C@@H]21` [compound 157, 5-(5-((1R,3s,5S,6r)-3-(3-oxa-6-azabicyclo[3.1.1]heptan-6-yl)bicyclo[3.1.0]hexan-6-yl)-1-isopropyl-1H-pyrazol-3-yl)-3-(difluoro-methoxy)pyridin-2-amine] returned a Ki of 3.1 nM.

Turning to `COC1CCN([C@@H]2C[C@@H]3[C@H](C2)[C@H]3c2cc(-c3cnc(N)c(OC(F)(F)F)c3)nn2C(C)C)CC1` [compound 246, 5-(1-isopropyl-5-((1R,3s,5S,6r)-3-(4-methoxypiperidin-1-yl)bicyclo[3.1.0]hexan-6-yl)-1H-pyrazol-3-yl)-3-(trifluoromethoxy) pyridin-2-amine], the affinity corresponds to a Ki of 1.8 nM.

With `COC1CN([C@@H]2C[C@@H]3[C@H](C2)[C@H]3c2cc(-c3cnc(N)c(OC(F)(F)F)c3)nn2C(C)C)C1` [compound 38, 5-(1-isopropyl-5-((1R,3s,5S,6r)-3-(3-methoxyazetidin-1-yl)bicyclo[3.1.0]hexan-6-yl)-1H-pyrazol-3-yl)-3-(trifluoromethoxy) pyridin-2-amine], affinity was put at a Ki of 1.45 nM.

`CC(C)n1nc(-c2cnc(N)c(OC(F)F)c2)cc1[C@H]1[C@@H]2C[C@@]3(CCN3CC(F)F)C[C@@H]21` [compound 162, 5-(5-((1′R,2r,5′S,6′r)-1-(2,2-difluoro-ethyl)spiro[azetidine-2,3′-bicyclo[3.1.0]hexan]-6′-yl)-1-isopropyl-1H-pyrazol-3-yl)-3-(difluoro-methoxy)pyridin-2-amine] displayed an inhibition constant (Ki) of 2.6 nM.

As to `CC(C)n1nc(-c2cnc3cnn([C@@H](C)c4ccccn4)c3c2)cc1[C@H]1[C@@H]2C[C@@H](N3CCOCC3)C[C@@H]21` [compound 32, 4-((1R,3R,5S,6r)-6-(1-isopropyl-3-(1-((S)-1-(pyridin-2-yl)ethyl)-1H-pyrazolo[4,3-b]pyridin-6-yl)-1H-pyrazol-5-yl)bicyclo[3.1.0]hexan-3-yl)morpholine], the Ki is 4.08 nM.

Regarding `CC(C)n1nc(-c2cnc(N)c(OC(F)F)c2)cc1[C@H]1[C@@H]2C[C@@H](N3CCN4CCCC4C3)C[C@@H]21` (single isomer, unassigned) [compound 258], the inhibition constant Ki is 0.9 nM.

`COCCN(C)[C@H]1C[C@@H]2[C@H](C1)[C@H]2c1cc(-c2cnc(N)c(C(F)(F)F)c2)nn1C(C)C` [compound 284, 5-(1-isopropyl-5-((1R,3r,5S,6r)-3-((2-methoxyethyl)(methyl)amino)bicyclo[3.l.0]hexan-6-yl)-1H-pyrazol-3-yl)-3-(trifluoromethyl) pyridin-2-amine]: the Ki came out at 5.7 nM.

In turn, `CC(C)n1nc(-c2cnc(N)c(C(F)(F)F)c2)cc1[C@H]1[C@@H]2C[C@@H](OC3COC3)C[C@@H]21` [compound 294, 5-(1-isopropyl-5-((1R,3s,5S,6r)-3-(oxetan-3-yloxy)bicyclo[3.1.0]hexan-6-yl)-1H-pyrazol-3-yl)-3-(trifluoromethyl)pyridin-2-amine] registered a Ki of 8.9 nM.

Consider `COC1CN([C@H]2C[C@@H]3[C@H](C2)[C@H]3c2cc(-c3cnc(N)c(OC(F)F)c3)nn2C(C)C)C1` [compound 61, 3-(difluoromethoxy)-5-(1-isopropyl-5-((1R,3r,5S,6r)-3-(3-methoxy-azetidin-1-yl)bicyclo[3.1.0]hexan-6-yl)-1H-pyrazol-3-yl) pyridin-2-amine], for which the inhibition constant Ki turned out to be 3.05 nM.
